Measured values as given in US9580432B2, “Fused pyrimidine compound or salt thereof” (TAIHO PHARMACEUTICAL CO., LTD., priority 2013, dated 2017).
pIC50: −log10 of the molar value.

Legend:
[1] = tested on: purified recombinant human EGFR protein / BTK; experiment: BTK inhibition selectivity compared with EGFR kinase inhibitory activity (in vitro); assay type: biochemical; conditions: EGFR assay ATP 1.5 μM
Protocol: 1) Measurement of BTK Inhibitory Activity
2) Measurement of EGFR Inhibitory Activity
Therefore, a biotinated peptide (biotin-[…]) was produced by referring to the amino acid sequence of the peptide. The purified recombinant human EGFR protein used in the test was purchased from Carna Biosciences, Inc.
With regard to the measurement of the inhibitory activity of the compounds, firstly, the compounds of the present invention were diluted stepwise with dimethyl sulfoxide (DMSO). […] The reaction was terminated by adding EDTA thereto in order to obtain a final concentration of 24 mM. Subsequently, a detection liquid containing Eu-labeled anti-phosphorylated tyrosine antibody PT66 (PerkinElmer, Inc.) and […] APC-SA (PerkinElmer, Inc.) was added thereto, and the system was left to stand for 2 hours or longer at room temperature.
3) BTK Inhibition Selectivity

A431 cells / TMD8 cells = experiment: Proliferation inhibitory activity against cell lines expressing BTK and EGFR (in vitro), comparison of selectivity; assay type: cell-based, human; conditions: ratio from GI50 (nM), 3 days culture, CELLTITER GLO
Description: TMD8 cells, which are of a diffuse large B-cell lymphoma cell line expressing BTK, were suspended in RPMI1640 medium (manufactured by Life Technologies Corp.) containing 10% fetal bovine serum. A431 cells, which are of an EGFR-overexpressing, highly activated human epidermoid carcinoma cell line, were suspended in DMEM, high glucose medium (manufactured by Life Technologies Corp.) containing 10% fetal bovine serum. The cell suspensions were inoculated into each well of 384-well flat-bottomed microplates, and the cells were cultured for 1 day at 37° C. in an incubator containing 5% carbon dioxide gas. […] A DMSO solution of the test compounds was diluted with the medium used in the suspension of the each cells, and this was added to each of the wells of the cell culture plates such that the final concentration of DMSO would be 0.2%. The cells were further cultured for 3 days at 37° C. in an incubator containing 5% carbon dioxide gas. […] Proliferation inhibition ratio (%)=(C−T)/(C−C0)×100
T: Luminescence intensity of a well in which the test compound was added
C: Luminescence intensity of a well in which the test compound was not added
C0: Luminescence intensity of a well measured before the addition of the test compound
When a comparison is made between the cell proliferation inhibitory activity against A431 cells that depends on the EGFR proliferation signaling and the cell proliferation inhibitory activity against TMD8 cells that depends on the BTK proliferation signaling, the influence of the respective kinases at a cellular level is able to be evaluated. That is, when the “A431 cell proliferation inhibition ratio/TMD8 cell proliferation inhibition ratio” is calculated, it is contemplated that as the value of the ratio is larger, the selectivity to BTK over EGFR in the cells is higher.

[2] = molecular target: purified recombinant human BTK protein (Homo sapiens (Human), UniProt Q06187); experiment: Measurement of BTK inhibitory activity (in vitro); assay type: biochemical; conditions: FL-PEPTIDE 2 substrate 1 μM, ATP 45 μM, 40 minutes at 25° C.
Description: With regard to the setting of the conditions for a method for measuring the inhibitory activity of a compound against BTK kinase activity in vitro, it is described in the consumable reagent supplies price list for LabChip (registered trademark) series of PerkinElmer, Inc. that FL-PEPTIDE 2 corresponds to a substrate peptide for the measurement of BTK kinase activity. Therefore, FL-PEPTIDE 2 was used as a substrate. The purified recombinant human BTK protein used in the test was purchased from Carna Biosciences, Inc.
With regard to the measurement of the inhibitory activity of the compounds, firstly, the compounds of the present invention were diluted stepwise with dimethyl sulfoxide (DMSO). Subsequently, BTK protein, a substrate peptide (final concentration was 1 μM), magnesium chloride (final concentration was 10 mM), ATP (final concentration was 45 μM), and a DMSO solution of the compounds of the present invention (final concentration of DMSO was 5%) were added to a buffer solution for kinase reaction (20 mM HEPES (pH 7.5), 2 mM dithiotheitol, 0.01% Triton X-100), and after the solution was incubated for 40 minutes at 25° C., a kinase reaction was carried out. The reaction was terminated by adding EDTA thereto in order to obtain a final concentration of 30 mM. Finally, a substrate peptide that was not phosphorylated (S) and a phosphorylated peptide (P) were separated and detected by microchannel capillary electrophoresis using a LabChip EZ Reader II (PerkinElmer, Inc.).

purified recombinant human BTK protein, sequence (Q06187 whole entry): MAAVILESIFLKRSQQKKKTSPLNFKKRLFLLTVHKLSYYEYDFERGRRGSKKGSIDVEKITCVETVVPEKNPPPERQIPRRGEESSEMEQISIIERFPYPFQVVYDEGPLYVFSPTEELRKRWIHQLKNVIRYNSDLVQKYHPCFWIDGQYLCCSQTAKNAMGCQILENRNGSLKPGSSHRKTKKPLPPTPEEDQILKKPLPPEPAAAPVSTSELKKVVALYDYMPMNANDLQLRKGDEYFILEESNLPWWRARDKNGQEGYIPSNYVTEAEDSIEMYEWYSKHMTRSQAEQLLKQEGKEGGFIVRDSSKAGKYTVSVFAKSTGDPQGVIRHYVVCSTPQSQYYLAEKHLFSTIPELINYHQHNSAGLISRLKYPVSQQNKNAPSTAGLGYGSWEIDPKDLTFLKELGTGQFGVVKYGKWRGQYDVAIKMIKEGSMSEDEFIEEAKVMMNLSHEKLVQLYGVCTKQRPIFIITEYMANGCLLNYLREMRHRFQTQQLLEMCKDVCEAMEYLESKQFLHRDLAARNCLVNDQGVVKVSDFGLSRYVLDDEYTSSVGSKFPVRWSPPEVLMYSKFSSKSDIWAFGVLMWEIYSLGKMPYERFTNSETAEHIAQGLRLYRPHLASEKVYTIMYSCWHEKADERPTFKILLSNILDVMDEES

Row | EGFR inhibitory activity IC50 value (nM)/BTK inhibitory activity IC50 value (nM) [1] | pIC50 [2] | Structure (SMILES) | A431 cell proliferation inhibition ratio/TMD8 cell proliferation inhibitio ratio (A431 cells / TMD8 cells)
1 | 37.1 | 8.84 | Nc1ncnc2c1c(C(=O)Nc1nc3cc(Cl)ccc3o1)cn2[C@@H]1CCN(C(=O)/C=C/CN2CCCCC2)C1 [Example 54, (R,E)-4-amino-N-(5-chlorobenzo[d]oxazol-2-yl)-7-(1-(4-(piperidin-1-yl)but-2-enoyl)pyrrolidin-3-yl) 7H-pyrrolo[2,3-d]pyrimidine-5-carboxamide] | >2675.9
2 | 24.8 | 8.82 | CN(C)C/C=C/C(=O)N1CC[C@@H](n2cc(C(=O)Nc3nc4cc(Cl)ccc4o3)c3c(N)ncnc32)C1 [Example 49, (R,E)-4-amino-N-(5-chlorobenzo[d]oxazol-2-yl)-7-(1-(4-(dimethylamino)but-2-enoyl)pyrrolidin-3-yl) 7H-pyrrolo[2,3-d]pyrimidine-5-carboxamide] | >3260.5
3 | 10.9 | – | C=CC(=O)N1CCC(n2nc(C(=O)Nc3nc4ccccc4o3)c3c(N)ncnc32)C1 (stereo not shown) [Example 82, 1-(1-acryloylpyrrolidin-3-yl)-4-amino-N-(benzo[d]oxazol-2-yl)-1H-pyrazolo[3,4-d]pyrimidine-3-carboxamide] | 8143.0
4 | 31.1 | 8.83 | CCN(CC)C/C=C/C(=O)N1CC[C@@H](n2cc(C(=O)Nc3nc4cc(Cl)ccc4o3)c3c(N)ncnc32)C1 [Example 51, (R,E)-4-amino-N-(5-chlorobenzo[d]oxazol-2-yl)-7-(1-(4-(diethylamino)but-2-enoyl)pyrrolidin-3-yl) 7H-pyrrolo[2,3-d]pyrimidine-5-carboxamide] | >2044.6
5 | 25.5 | 8.78 | Nc1ncnc2c1c(C(=O)Nc1nc3cc(Cl)ccc3o1)cn2[C@@H]1CCN(C(=O)/C=C/CN2CCCC2)C1 [Example 53, (R,E)-4-amino-N-(5-chlorobenzo[d]oxazol-2-yl)-7-(1-(4-(pyrrolidin-1-yl)but-2-enoyl)pyrrolidin-3-yl) 7H-pyrrolo[2,3-d]pyrimidine-5-carboxamide] | >1535.4
6 | 35.1 | 9.10 | CC(C)N(C)C/C=C/C(=O)N1CC[C@@H](n2nc(C(=O)Nc3nc4cc(Cl)ccc4o3)c3c(N)ncnc32)C1 [Example 35, (R,E)-4-amino-N-(5-chlorobenzo[d]oxazol-2-yl)-1-(1-(4-(isopropyl(methyl)amino)but-2-enoyl)pyrrolidin-3-yl)-1H-pyrazolo[3,4-d]pyrimidine-3-carboxamide] | >18691.6
7 | 39.6 | – | C=CC(=O)N1CCC(n2nc(C(=O)Nc3nc4cc(F)ccc4o3)c3c(N)ncnc32)C1 (stereo not shown) [Example 83, 1-(1-acryloylpyrrolidin-3-yl)-4-amino-N-(5-fluorobenzo[d]oxazol-2-yl)-1H-pyrazolo[3,4-d]pyrimidine-3-carboxamide] | >18797.0
8 | 204.9 | – | C=CC(=O)N[C@H]1CC[C@@H](n2nc(C(=O)Nc3nc4cc(F)ccc4o3)c3c(N)ncnc32)CC1 [Example 81, 1-((1S,4S)-4-acrylamidocyclohexyl)-4-amino-N-(5-fluorobenzo[d]oxazol-2-yl)-1H-pyrazolo[3,4-d]pyrimidine-3-carboxamide] | 8346.7
9 | 67.5 | 8.63 | Nc1ncnc2c1c(C(=O)Nc1nc3cc(-c4ccccc4)ccc3o1)cn2[C@@H]1CCN(C(=O)/C=C/CN2CCCCC2)C1 [Example 61, (R,E)-4-amino-N-(5-phenylbenzo[d]oxazol-2-yl)-7-(1-(4-(piperidin-1-yl)but-2-enoyl)pyrrolidin-3-yl) 7H-pyrrolo[2,3-d]pyrimidine-5-carboxamide] | –
10 | 100.7 | – | C=CC(=O)N[C@H]1CC[C@@H](n2nc(C(=O)Nc3nc4cc(Cl)ccc4o3)c3c(N)ncnc32)CC1 [Example 78, 1-((1S,4S)-4-acrylamidocyclohexyl)-4-amino-N-(5-chlorobenzo[d]oxazol-2-yl)-1H-pyrazolo[3,4-d]pyrimidine-3-carboxamide] | >23596.7
11 | 70.5 | 9.10 | Nc1ncnc2c1c(C(=O)Nc1nc3cc(Cl)ccc3o1)nn2[C@@H]1CCN(C(=O)/C=C/CN2CCCCC2)C1 [Example 37, (R,E)-4-amino-N-(5-chlorobenzo[d]oxazol-2-yl)-1-(1-(4-(piperidin-1-yl)but-2-enoyl)pyrrolidin-3-yl)-1H-pyrazolo[3,4-d]pyrimidine-3-carboxamide] | –
12 | 241.0 | 8.90 | C/C=C/C(=O)N1CCC[C@@H](n2nc(C(=O)Nc3nc4cc(Cl)ccc4o3)c3c(N)ncnc32)C1 [Example 5, (R,E)-4-amino-N-(5-chlorobenzo[d]oxazol-2-yl)-1-(1-(but-2-enoyl)piperidin-3-yl)-1H-pyrazolo[3,4-d]pyrimidine-3-carboxamide] | –

Row | Structure (SMILES) | EGFR inhibitory activity IC50 value (nM)/BTK inhibitory activity IC50 value (nM) [1] | pIC50 [2] | A431 cell proliferation inhibition ratio/TMD8 cell proliferation inhibitio ratio (A431 cells / TMD8 cells)
13 | C=CC(=O)N1CCC(Cn2nc(C(=O)Nc3nc4cc(Cl)ccc4o3)c3c(N)ncnc32)CC1 [Example 80, 1-((1-acryloylpiperidin-4-yl)methyl)-4-amino-N-(5-chlorobenzo[d]oxazol-2-yl)-1H-pyrazolo[3,4-d]pyrimidine-3-carboxamide] | 75.4 | – | 14348.9
14 | C=CC(=O)N1CC(Cn2nc(C(=O)Nc3nc4cc(F)ccc4o3)c3c(N)ncnc32)C1 [Example 75, 1-((1-acryloylazetidin-3-yl)methyl)-4-amino-N-(5-fluorobenzo[d]oxazol-2-yl)-1H-pyrazolo[3,4-d]pyrimidine-3-carboxamide] | 58.2 | – | >1643.7
15 | C=CC(=O)N1CCC(Cn2nc(C(=O)Nc3nc4cc(F)ccc4o3)c3c(N)ncnc32)CC1 [Example 77, 1-((1-acryloylpiperidin-4-yl)methyl)-4-amino-N-(5-fluorobenzo[d]oxazol-2-yl)-1H-pyrazolo[3,4-d]pyrimidine-3-carboxamide] | 203.7 | – | >6793.5
16 | C=CC(=O)N1CC(Cn2nc(C(=O)Nc3nc4cc(Cl)ccc4o3)c3c(N)ncnc32)C1 [Example 76, 1-((1-acryloylazetidin-3-yl)methyl)-4-amino-N-(5-chlorobenzo[d]oxazol-2-yl)-1H-pyrazolo[3,4-d]pyrimidine-3-carboxamide] | 11.4 | – | >2345.8
